From paper PMC8487040, “Detection of juvenile hormone agonists by a new reporter gene assay using yeast expressing Drosophila methoprene‐tolerant” (FEBS Open Bio, 2021)

target: T1, Met–Tai (D. melanogaster Met co-expressed with Tai) (Drosophila melanogaster, UniProt Q9VYW2, T103P); assay: yeast lacZ reporter gene assay (beta-galactosidase, ONPG); type: cell-based; details: not given
T1 construct: full-length Met ORF (codon 103 CCC, Pro); heterodimer; with Taiman
Description: yeast lacZ reporter gene assay (beta-galactosidase, ONPG) on Met–Tai (D. melanogaster Met co-expressed with Tai)

T1 sequence (Q9VYW2 1-716 T103P): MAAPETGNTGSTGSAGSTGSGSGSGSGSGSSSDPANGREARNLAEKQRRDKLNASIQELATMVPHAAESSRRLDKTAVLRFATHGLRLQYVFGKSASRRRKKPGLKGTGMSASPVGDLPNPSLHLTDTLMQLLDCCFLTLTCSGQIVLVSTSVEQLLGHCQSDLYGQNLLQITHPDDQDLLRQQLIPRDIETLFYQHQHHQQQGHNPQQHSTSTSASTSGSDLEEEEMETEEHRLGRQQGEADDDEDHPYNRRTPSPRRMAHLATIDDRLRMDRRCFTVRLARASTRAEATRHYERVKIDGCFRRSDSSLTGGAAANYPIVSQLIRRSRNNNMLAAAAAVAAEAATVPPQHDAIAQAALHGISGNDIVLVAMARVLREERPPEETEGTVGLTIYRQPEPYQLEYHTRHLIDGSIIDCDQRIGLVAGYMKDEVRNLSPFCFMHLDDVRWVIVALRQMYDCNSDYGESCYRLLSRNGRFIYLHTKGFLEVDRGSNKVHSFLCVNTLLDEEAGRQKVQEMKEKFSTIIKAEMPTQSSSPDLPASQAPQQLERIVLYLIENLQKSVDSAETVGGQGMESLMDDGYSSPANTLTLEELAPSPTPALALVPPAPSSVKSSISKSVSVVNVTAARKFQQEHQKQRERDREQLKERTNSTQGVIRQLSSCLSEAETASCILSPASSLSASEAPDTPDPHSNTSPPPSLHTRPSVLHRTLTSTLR
T1 sequence (Q9VLD9 1-2026 partner): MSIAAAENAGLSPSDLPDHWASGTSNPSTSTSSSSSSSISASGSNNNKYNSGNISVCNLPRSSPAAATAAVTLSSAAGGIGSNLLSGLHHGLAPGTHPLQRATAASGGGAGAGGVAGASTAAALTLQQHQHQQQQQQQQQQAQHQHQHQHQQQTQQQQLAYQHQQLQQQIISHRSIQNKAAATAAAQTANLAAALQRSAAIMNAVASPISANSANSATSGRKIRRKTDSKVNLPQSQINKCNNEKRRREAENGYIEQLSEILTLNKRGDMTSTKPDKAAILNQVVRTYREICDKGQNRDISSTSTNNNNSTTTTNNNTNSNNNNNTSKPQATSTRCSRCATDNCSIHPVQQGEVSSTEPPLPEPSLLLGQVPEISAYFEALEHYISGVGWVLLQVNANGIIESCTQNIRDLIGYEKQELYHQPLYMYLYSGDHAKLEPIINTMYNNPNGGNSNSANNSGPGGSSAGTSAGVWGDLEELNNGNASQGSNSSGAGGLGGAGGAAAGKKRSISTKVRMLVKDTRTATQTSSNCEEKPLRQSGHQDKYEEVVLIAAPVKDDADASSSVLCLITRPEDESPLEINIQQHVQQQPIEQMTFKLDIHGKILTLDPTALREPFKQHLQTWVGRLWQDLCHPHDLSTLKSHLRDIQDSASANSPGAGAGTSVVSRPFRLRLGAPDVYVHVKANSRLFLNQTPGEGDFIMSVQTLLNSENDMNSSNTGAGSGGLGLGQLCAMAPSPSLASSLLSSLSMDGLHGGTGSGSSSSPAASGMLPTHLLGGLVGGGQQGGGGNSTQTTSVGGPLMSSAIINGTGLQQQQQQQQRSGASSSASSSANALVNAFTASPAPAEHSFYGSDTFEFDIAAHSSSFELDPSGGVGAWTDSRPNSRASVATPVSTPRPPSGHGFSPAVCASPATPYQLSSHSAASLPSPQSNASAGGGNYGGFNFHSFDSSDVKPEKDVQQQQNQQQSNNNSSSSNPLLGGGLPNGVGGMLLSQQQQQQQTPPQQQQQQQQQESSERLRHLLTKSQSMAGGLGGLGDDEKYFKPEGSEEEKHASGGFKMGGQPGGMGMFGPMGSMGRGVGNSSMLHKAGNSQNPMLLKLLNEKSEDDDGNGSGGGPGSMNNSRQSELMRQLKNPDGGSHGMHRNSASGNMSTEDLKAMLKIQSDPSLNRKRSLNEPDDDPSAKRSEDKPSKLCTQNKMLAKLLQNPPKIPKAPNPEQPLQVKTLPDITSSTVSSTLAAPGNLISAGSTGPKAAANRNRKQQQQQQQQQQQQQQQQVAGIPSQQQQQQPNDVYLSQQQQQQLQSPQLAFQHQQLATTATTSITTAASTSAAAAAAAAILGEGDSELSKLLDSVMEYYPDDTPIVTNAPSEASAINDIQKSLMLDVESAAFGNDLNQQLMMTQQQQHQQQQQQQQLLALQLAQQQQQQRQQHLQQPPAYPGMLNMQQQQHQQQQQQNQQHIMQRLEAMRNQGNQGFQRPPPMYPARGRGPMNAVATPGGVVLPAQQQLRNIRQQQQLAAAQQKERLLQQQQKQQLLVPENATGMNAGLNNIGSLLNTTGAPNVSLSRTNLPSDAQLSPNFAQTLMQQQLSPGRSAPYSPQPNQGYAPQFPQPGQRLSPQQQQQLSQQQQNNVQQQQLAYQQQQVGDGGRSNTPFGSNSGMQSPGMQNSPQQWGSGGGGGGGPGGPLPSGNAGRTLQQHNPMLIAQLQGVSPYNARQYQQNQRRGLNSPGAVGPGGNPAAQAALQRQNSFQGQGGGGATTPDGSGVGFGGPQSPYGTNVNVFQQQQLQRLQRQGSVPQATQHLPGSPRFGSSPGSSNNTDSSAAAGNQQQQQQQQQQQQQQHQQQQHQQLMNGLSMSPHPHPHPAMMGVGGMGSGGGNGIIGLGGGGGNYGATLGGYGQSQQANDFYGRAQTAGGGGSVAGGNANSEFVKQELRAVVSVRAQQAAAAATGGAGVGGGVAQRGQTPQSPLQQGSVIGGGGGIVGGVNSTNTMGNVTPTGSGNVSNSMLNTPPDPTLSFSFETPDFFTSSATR

**Q.** How did the EC50 turn out when `CCOC(=O)/C=C(C)/C=C/C[C@@H](C)CCCC(C)C` [(S)‐hydroprene] was run?
**A.** 570 ± 150 nM

**Q.** `CCOC(=O)NCCOc1ccc(Oc2ccccc2)cc1` [Fenoxycarb] was tested. Which EC50 did it give?
**A.** 3 ± 1 nM

**Q.** `CC/C(=C\C(=O)OC)CC/C=C(\CC)CC[C@H]1O[C@@]1(C)CC` [JH 0] was tested. Which EC50 did it give?
**A.** 213 ± 14 nM

**Q.** Which EC50 does the source give for `COC(=O)/C=C(\C)CC/C=C(\C)CC[C@H]1OC1(C)C` [JH III] here?
**A.** 62 ± 5 nM

**Q.** Which EC50 does the source give for `CC[C@]1(C)O[C@@H]1CC/C(C)=C/CC/C(C)=C/C(=O)OC` [JH II] here?
**A.** 50 ± 17 nM

**Q.** Which EC50 does the source give for `CC/C(=C\CC/C(C)=C/C(=O)OC)CC[C@H]1O[C@@]1(C)CC` [JH I] here?
**A.** 65 ± 11 nM

**Q.** Which EC50 does the source give for `COC(C)(C)CCCC(C)C/C=C/C(C)=C/C(=O)OC(C)C` (stereo not drawn) [Methoprene] here?
**A.** 1100 ± 230 nM

**Q.** How did the EC50 turn out when `COC(=O)/C=C(\C)CC/C=C(\C)CCC=C(C)C` [Methyl farnesoate] was run?
**A.** 160 ± 7 nM

same assay, conditions: agonist; 30 °C, 18 h; Tai co-expressed; BmkJHRE x 2 reporter

**Q.** For `CC(COc1ccc(Oc2ccccc2)cc1)Oc1ccccn1` (stereo not drawn) [Pyriproxyfen], which EC50 is on record?
**A.** 87 ± 12 nM
